Laboratory results published in patent publication US10590078B2, “Sodium channel blockers” (Daewoong Pharmaceutical Co., Ltd., priority 2015, dated 2020).
Read-outs that look alike come from different tables or passages of the source.

Target: human sodium ion channel 1.7 (hNav1.7) (Homo sapiens, UniProt Q15858)
Assay: Blocking effect against sodium ion channel Nav1.7, IonFlux16 auto patch clamp in hNav1.7 HEK293 cells
Assay type: cell-based
[1] = hNav1.7 HEK293 cells, inhibition of peak current after 50 seconds treatment, eight concentrations, read-out: IC50

human sodium ion channel 1.7 (hNav1.7), sequence (Q15858 whole entry): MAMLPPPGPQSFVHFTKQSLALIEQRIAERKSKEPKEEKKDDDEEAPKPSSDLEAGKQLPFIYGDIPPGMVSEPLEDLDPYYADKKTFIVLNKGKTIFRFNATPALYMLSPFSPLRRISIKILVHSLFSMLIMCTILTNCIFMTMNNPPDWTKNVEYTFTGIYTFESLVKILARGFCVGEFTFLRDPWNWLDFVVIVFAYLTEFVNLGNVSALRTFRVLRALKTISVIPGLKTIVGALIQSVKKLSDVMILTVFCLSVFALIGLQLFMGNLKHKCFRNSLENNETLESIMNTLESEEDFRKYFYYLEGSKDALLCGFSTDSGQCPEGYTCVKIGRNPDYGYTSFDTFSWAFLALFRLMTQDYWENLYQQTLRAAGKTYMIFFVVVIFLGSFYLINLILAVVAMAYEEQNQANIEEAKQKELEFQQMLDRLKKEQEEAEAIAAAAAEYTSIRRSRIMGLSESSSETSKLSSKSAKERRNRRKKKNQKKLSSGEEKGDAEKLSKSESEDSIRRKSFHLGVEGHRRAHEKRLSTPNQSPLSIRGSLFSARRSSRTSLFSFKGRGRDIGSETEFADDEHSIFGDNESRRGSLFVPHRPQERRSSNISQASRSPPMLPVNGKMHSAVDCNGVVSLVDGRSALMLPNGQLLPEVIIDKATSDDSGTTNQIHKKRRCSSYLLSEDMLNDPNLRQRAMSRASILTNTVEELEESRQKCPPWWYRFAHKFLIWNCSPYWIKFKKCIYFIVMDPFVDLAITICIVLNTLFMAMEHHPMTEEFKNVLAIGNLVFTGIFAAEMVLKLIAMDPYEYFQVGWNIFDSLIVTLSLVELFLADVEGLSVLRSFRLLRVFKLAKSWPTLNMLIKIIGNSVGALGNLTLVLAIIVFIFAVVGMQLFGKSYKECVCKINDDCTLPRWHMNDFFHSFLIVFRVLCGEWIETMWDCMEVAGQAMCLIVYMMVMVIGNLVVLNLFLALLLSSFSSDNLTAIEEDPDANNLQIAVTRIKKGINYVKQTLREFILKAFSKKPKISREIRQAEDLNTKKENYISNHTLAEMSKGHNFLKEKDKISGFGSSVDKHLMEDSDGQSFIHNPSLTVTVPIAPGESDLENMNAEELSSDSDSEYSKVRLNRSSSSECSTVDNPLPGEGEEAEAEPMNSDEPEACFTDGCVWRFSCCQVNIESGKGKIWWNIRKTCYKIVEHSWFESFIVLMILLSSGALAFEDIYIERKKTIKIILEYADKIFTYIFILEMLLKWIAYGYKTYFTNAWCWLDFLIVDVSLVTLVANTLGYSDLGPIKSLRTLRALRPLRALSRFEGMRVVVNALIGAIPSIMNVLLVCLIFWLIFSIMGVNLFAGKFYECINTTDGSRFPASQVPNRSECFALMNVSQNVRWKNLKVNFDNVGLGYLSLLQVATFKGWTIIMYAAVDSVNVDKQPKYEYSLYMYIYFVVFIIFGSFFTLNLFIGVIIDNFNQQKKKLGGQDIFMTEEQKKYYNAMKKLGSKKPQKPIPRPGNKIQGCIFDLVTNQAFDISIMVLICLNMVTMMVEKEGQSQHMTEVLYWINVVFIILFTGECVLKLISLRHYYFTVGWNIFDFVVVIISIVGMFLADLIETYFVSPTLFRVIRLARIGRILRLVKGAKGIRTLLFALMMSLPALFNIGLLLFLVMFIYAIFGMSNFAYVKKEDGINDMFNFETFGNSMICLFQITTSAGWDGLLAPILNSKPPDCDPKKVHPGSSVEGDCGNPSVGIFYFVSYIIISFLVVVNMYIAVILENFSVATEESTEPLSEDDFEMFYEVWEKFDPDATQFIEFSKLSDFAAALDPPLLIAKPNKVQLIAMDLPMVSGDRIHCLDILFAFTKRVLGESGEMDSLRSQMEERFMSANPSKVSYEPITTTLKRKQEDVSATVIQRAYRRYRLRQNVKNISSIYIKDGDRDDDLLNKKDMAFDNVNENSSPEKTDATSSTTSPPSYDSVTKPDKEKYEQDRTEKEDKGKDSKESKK

SMILES | IC50 [nM] | IC50 [1] [nM]
CS(=O)(=O)NC(=O)c1cc(Cl)c(-n2nc(Cl)c3ccc(OCc4ccccc4)cc32)cc1F [Example 45, 4-(6-(benzyloxy)-3-chloro-1H-indazol-1-yl)-5-chloro-2-fluoro-N-(methylsulfonyl)benzamide] | – | 134
CC(Oc1ccc2c(c1)c(Cl)nn2-c1cc(F)c(C(=O)NS(C)(=O)=O)cc1Cl)c1ccccc1 (centres unmarked) [Example 33, 5-chloro-4-(3-chloro-5-(1-phenylethoxy)-1H-indazol-1-yl)-2-fluoro-N-(methylsulfonyl)benzamide] | – | 214
Cc1nn(-c2cc(F)c(C(=O)NS(C)(=O)=O)cc2Cl)c2ccc(OCc3ccccc3)cc12 [Example 30, 4-(5-(benzyloxy)-3-methyl-1H-indazol-1-yl)-5-chloro-2-fluoro-N-(methylsulfonyl)benzamide] | – | 247
CS(=O)(=O)NC(=O)c1ccc(-n2nc(-c3ccc(F)cc3)c3cc(Cl)ccc32)c(C#N)c1 [Example 101, 4-(5-chloro-3-(4-fluorophenyl)-1H-indazol-1-yl)-3-cyano-N-(methylsulfonyl)benzamide] | – | 3020
CS(=O)(=O)NC(=O)c1cc(Cl)c(-n2cc(-c3cccc(Cl)c3F)c3cccnc32)cc1F [Example 222, 5-chloro-4-(3-(3-chloro-2-fluorophenyl)-1H-pyrrolo[2,3-b]pyridin-1-yl)-2-fluoro-N-(methylsulfonyl)benzamide] | – | 410
CS(=O)(=O)NC(=O)c1cc(Cl)c(-n2nc(-c3cccc(C#N)c3)c3cc(F)ccc32)cc1F [Example 166, 5-chloro-4-(3-(3-cyanophenyl)-5-fluoro-1H-indazol-1-yl)-2-fluoro-N-(methylsulfonyl)benzamide] | – | 228
CS(=O)(=O)NC(=O)c1ccc(-n2nc(-c3ccccc3C#N)c3cc(Cl)ccc32)c(C#N)c1 [Example 94, 4-(5-chloro-3-(2-cyanophenyl)-1H-indazol-1-yl)-3-cyano-N-(methylsulfonyl)benzamide] | – | > 10000
CS(=O)(=O)NC(=O)c1cc(Cl)c(-n2nc(Cl)c3cc(-c4ccccc4C(F)(F)F)ccc32)cc1F [Example 250, 5-chloro-4-(3-chloro-5-(2-(trifluoromethyl)phenyl)-1H-indazol-1-yl)-2-fluoro-N-(methylsulfonyl)benzamide] | – | 67
COc1ccc(-c2nn(-c3ccc(C(=O)NS(C)(=O)=O)cc3F)c3ccc(Cl)cc23)cc1 [Example 118, 4-(5-chloro-3-(4-methoxyphenyl)-1H-indazol-1-yl)-3-fluoro-N-(methylsulfonyl)benzamide] | – | 360
CS(=O)(=O)NC(=O)c1ccc(-n2nc(-c3ccc(Cl)cc3)c3cc(Cl)ccc32)c(F)c1 [Example 126, 4-(5-chloro-3-(4-chlorophenyl)-1H-indazol-1-yl)-3-fluoro-N-(methylsulfonyl)benzamide] | – | 990
CS(=O)(=O)NC(=O)c1cc(Cl)c(-n2nc(-c3ccc(F)cc3F)c3cc(F)ccc32)cc1F [Example 159, 5-chloro-4-(3-(2,4-difluorophenyl)-5-fluoro-1H-indazol-1-yl)-2-fluoro-N-(methylsulfonyl)benzamide] | – | 100
O=S(=O)(Nc1cscn1)c1cc(F)c(-n2nc(Cl)c3cc(C(F)(F)F)ccc32)cc1F [Example 279, 4-(3-chloro-5-(trifluoromethyl)-1H-indazol-1-yl)-2,5-difluoro-N-(thiazol-4-yl)benzenesulfonamide] | – | > 10000
COc1ccccc1-c1nn(-c2cc(F)c(C(=O)NS(C)(=O)=O)cc2Cl)c2ccc(F)cc12 [Example 146, 5-chloro-2-fluoro-4-(5-fluoro-3-(2-methoxyphenyl)-1H-indazol-1-yl)-N-(methylsulfonyl)benzamide] | – | 200
CS(=O)(=O)NC(=O)c1ccc(-n2nc(-c3ccccc3)c3cc(Cl)ccc32)cc1F [Example 127, 4-(5-chloro-3-phenyl-1H-indazol-1-yl)-2-fluoro-N-(methylsulfonyl)benzamide] | – | 3940
CS(=O)(=O)NC(=O)c1ccc(-n2cc(-c3ccc(Cl)cc3)c3cc(Cl)ccc32)nc1 [Example 274, 6-(5-chloro-3-(4-chlorophenyl)-1H-indol-1-yl)-N-(methylsulfonyl)nicotinamide] | – | 5960

Second part, the compound after the results:

IC50 [nM] | IC50 [1] [nM] | SMILES
40 | – | CS(=O)(=O)NC(=O)c1cc(Cl)c(-n2cc(-c3cccc(Cl)c3F)c3cc(F)cnc32)cc1F [Example 211, 5-chloro-4-(3-(3-chloro-2-fluorophenyl)-5-fluoro-1H-pyrrolo[2,3-b]pyridin-1-yl)-2-fluoro-N-(methylsulfonyl)benzamide]
– | 280 | CS(=O)(=O)NC(=O)c1cc(Cl)c(-n2nc(Cl)c3cc(C4CC4)ccc32)cc1F [Example 24, 5-chloro-4-(3-chloro-5-cyclopropyl-1H-indazol-1-yl)-2-fluoro-N-(methylsulfonyl)benzamide]
90 | – | CS(=O)(=O)NC(=O)c1cc(Cl)c(-n2nc(-c3cc(F)ccc3F)c3cc(Cl)ccc32)cc1F [Example 76, 5-chloro-4-(5-chloro-3-(2,5-difluorophenyl)-1H-indazol-1-yl)-2-fluoro-N-(methylsulfonyl)benzamide]
– | 80 | CS(=O)(=O)NC(=O)c1cc(Cl)c(-n2cc(-c3ccc(F)cc3)c3cc(Cl)cnc32)cc1F [Example 185, 5-chloro-4-(5-chloro-3-(4-fluorophenyl)-1H-pyrrolo[2,3-b]pyridin-1-yl)-2-fluoro-N-(methylsulfonyl)benzamide]
– | 270 | CS(=O)(=O)NC(=O)c1cc(Cl)c(-n2cc(-c3cccc(C(F)(F)F)c3)c3cc(Cl)cnc32)cc1F [Example 192, 5-chloro-4-(5-chloro-3-(3-(trifluoromethyl)phenyl)-1H-pyrrolo[2,3-b]pyridin-1-yl)-2-fluoro-N-(methylsulfonyl)benzamide]
– | 40 | CS(=O)(=O)NC(=O)c1cc(Cl)c(-n2cc(-c3ccc(F)cc3Cl)c3cc(Cl)cnc32)cc1F [Example 197, 5-chloro-4-(5-chloro-3-(2-chloro-4-fluorophenyl)-1H-pyrrolo[2,3-b]pyridin-1-yl)-2-fluoro-N-(methylsulfonyl)benzamide]
– | 240 | CS(=O)(=O)NC(=O)c1cc(Cl)c(-n2nc(-c3ccc([N+](=O)[O-])cc3)c3cc(Cl)ccc32)cc1F [Example 81, 5-chloro-4-(5-chloro-3-(4-nitrophenyl)-1H-indazol-1-yl)-2-fluoro-N-(methylsulfonyl)benzamide]
20 | – | CS(=O)(=O)NC(=O)c1cc(Cl)c(-n2nc(-c3cc(F)c(F)c(F)c3)c3cc(Cl)ccc32)cc1F [Example 77, 5-chloro-4-(5-chloro-3-(3,4,5-trifluorophenyl)-1H-indazol-1-yl)-2-fluoro-N-(methylsulfonyl)benzamide]
– | 420 | CS(=O)(=O)NC(=O)c1cc(Cl)c(-n2nc(Cl)c3cc(-c4cc(Cl)ccc4F)ccc32)cc1F [Example 254, 5-chloro-4-(3-chloro-5-(5-chloro-2-fluorophenyl)-1H-indazol-1-yl)-2-fluoro-N-(methylsulfonyl)benzamide]
– | 80 | CS(=O)(=O)NC(=O)c1cc(Cl)c(-n2nc(-c3ccc(Cl)c(F)c3)c3cc(Cl)ccc32)cc1F [Example 80, 5-chloro-4-(5-chloro-3-(4-chloro-3-fluorophenyl)-1H-indazol-1-yl)-2-fluoro-N-(methylsulfonyl)benzamide]
– | 2600 | CC(C)(C)OC(=O)N1CC=C(c2nn(-c3cc(F)c(C(=O)NS(C)(=O)=O)cc3Cl)c3ccc(Cl)cc23)CC1 [Example 131, tert-butyl 4-(5-chloro-1-(2-chloro-5-fluoro-4-((methylsulfonyl)carbamoyl)phenyl)-1H-indazol-3-yl)-3,6-dihydropyridine-1(2H)-carboxylate]
– | 283 | CS(=O)(=O)NC(=O)c1cc(Cl)c(-n2nc(Cl)c3cc(-c4ccc(F)c(C#N)c4)ccc32)cc1F [Example 239, 5-chloro-4-(3-chloro-5-(3-cyano-4-fluorophenyl)-1H-indazol-1-yl)-2-fluoro-N-(methylsulfonyl)benzamide]
– | 370 | CS(=O)(=O)NC(=O)c1cc(Cl)c(-n2nc(/C=C/c3ccccc3F)c3cc(Cl)ccc32)cc1F [Example 135, (E)-5-chloro-4-(5-chloro-3-(2-fluorostyryl)-1H-indazol-1-yl)-2-fluoro-N-(methylsulfonyl)benzamide]
– | 370 | CS(=O)(=O)NC(=O)c1cc(Cl)c(-n2cc(-c3ccc(Cl)cc3)c3cc(Cl)ccc32)cc1F [Example 272, 5-chloro-4-(5-chloro-3-(4-chlorophenyl)-1H-indol-1-yl)-2-fluoro-N-(methylsulfonyl)benzamide]
– | 20 | CS(=O)(=O)NC(=O)c1cc(Cl)c(-n2nc(-c3ccc(F)cc3Cl)c3cc(Cl)ccc32)cc1F [Example 74, 5-chloro-4-(5-chloro-3-(2-chloro-4-fluorophenyl)-1H-indazol-1-yl)-2-fluoro-N-(methylsulfonyl)benzamide]
– | 61 | CS(=O)(=O)NC(=O)c1cc(Cl)c(-n2nc(-c3cccc(Cl)c3)c3cc(Cl)ccc32)cc1F [Example 72, 5-chloro-4-(5-chloro-3-(3-chlorophenyl)-1H-indazol-1-yl)-2-fluoro-N-(methylsulfonyl)benzamide]
– | 144 | CS(=O)(=O)NC(=O)c1cc(Cl)c(-n2nc(Cl)c3cc(-c4ccccc4)ccc32)cc1F [Example 230, 5-chloro-4-(3-chloro-5-phenyl-1H-indazol-1-yl)-2-fluoro-N-(methylsulfonyl)benzamide]
– | 300 to 1000 | CS(=O)(=O)NC(=O)c1cc(Cl)c(-n2cc(C(=O)O)c3cc(Cl)ccc32)cc1F [Example 265, 5-chloro-1-(2-chloro-5-fluoro-4-((methylsulfonyl)carbamoyl)phenyl)-1H-indole-3-carboxylic acid]
– | 80 | CS(=O)(=O)NC(=O)c1cc(Cl)c(-n2cc(-c3ccc(Cl)cc3)c3cc(Cl)cnc32)cc1F [Example 195, 5-chloro-4-(5-chloro-3-(4-chlorophenyl)-1H-pyrrolo[2,3-b]pyridin-1-yl)-2-fluoro-N-(methylsulfonyl)benzamide]
– | 80 | CS(=O)(=O)NC(=O)c1cc(Cl)c(-n2cc(-c3ccc(F)cc3F)c3cc(Cl)cnc32)cc1F [Example 186, 5-chloro-4-(5-chloro-3-(2,4-difluorophenyl)-1H-pyrrolo[2,3-b]pyridin-1-yl)-2-fluoro-N-(methylsulfonyl)benzamide]
